The values below come from article PMC7385036, “An allosteric pocket for inhibition of bacterial Enzyme I identified by NMR-based fragment screening” (Journal of Structural Biology: X, 2020).

The target in test [1] is T1, full-length EI (Escherichia coli, UniProt P08839). The note with it: read-out: Km,0 (Km in the absence of inhibitor); PEP as substrate of EI; kept fixed to its literature value, no reference given; cited from earlier work.
The target of test [2] is T2, EIC domain of EI (Escherichia coli, UniProt P08839).
T2 construct: made in house
The test can be described thus: CSP-based NMR titration experiments (equilibrium dissociation constant). Format: binding, E. coli. The source says: The affinity of the newly discovered EI ligands was investigated by acquiring CSP-based, NMR titration experiments on ^15N-labeled EIN or EIC at increasing concentration of small molecule ([Fielding, 2007]). The data were fit using a standard equilibrium dissociation equation ([Granot, 1983]) to obtain the equilibrium dissociation constant (KD) per each analyzed complex (Fig. 2d). This analysis identified six small molecules that bind the EIC domain of EI with low mM affinity (Fig. 2e).
NMR titration experiments were measured at 37 °C in 20 mM Tris (pH 7.4), 100 mM NaCl, 4 mM MgCl2, 2 mM DTT, and 5% D2O. The protein concentration was 400 µM and the concentration of small molecule was varied between 0 and 8 mM. Spectra were processed using NMRPipe ([Delaglio et al., 1995]) and analyzed using the program SPARKY (http://www.cgl.ucsf.edu/home/sparky). Assignment of the ^1H-^15N cross-peaks for the EIC-small molecule complexes was performed by titration experiments, following the change in ^1H-^15N cross-peak positions as a function of added small molecule. Weighted combined ^1H/^15N chemical shift perturbations (ΔH/N) resulting from the addition of increasing concentrations of small molecule were calculated using the following equation ([Mulder et al., 1999]):(1) ΔH/N=ΔδHWH^2+ΔδNWN^2 where WH (=1) and WN (=0.154) are weighting factor for the ^1H and ^15N amide shifts, respectively. ΔδH and ΔδN are the ^1H and ^15N chemical shift differences in ppm, respectively, between free and bound states. The equilibrium dissociation constants (KD) for the EIC-inhibitor complexes were obtained by fitting the changes in ΔH/N with increasing concentration of small molecule using the equation ([Granot, 1983]):(2) ΔH/N=Δ0P+L+KD-P+L-KD^2-4PL/2P where Δ0 is the weighted combined ^1H/^15N chemical shift at saturation, and P and L are the protein and small molecule concentrations, respectively.

Test [3] concerns the target T1, full-length EI. The test can be described thus: Enzyme kinetic assay of phosphoryl transfer from PEP to HPr by 1H-15N SOFAST NMR. The conditions noted are these: 0.0, 1.5 and 6.0 mM compound, 25 °C, pH 7.4. More on the design: phosphoryl transfer from PEP to HPr catalyzed by full-length EI; made in house. It counts as biochemical, E. coli. The source says:
In such graphs, the y and x intercepts are equivalent to the inverse of the maximum velocity (1/Vmax) and the negative inverse of the Michaelis constant (−1/Km), respectively.
Vmax,0 (the value of Vmax in the absence of inhibitor) was optimized to maximize the agreement between experimental and simulated data (Fig. 3c).
Enzyme kinetic assay we run by measuring the rate of phosphoryl transfer from PEP to HPr catalyzed by full-length EI by using ^1H-^15N SOFAST NMR spectra as described previously ([Nguyen et al., 2018]). Reaction were run at 25 °C in 20 mM Tris (pH 7.4), 100 mM NaCl, 4 mM MgCl2, 2 mM DTT, and 5% D2O. The assay was performed in triplicate. The enzyme kinetic data measured at different concentration of inhibitor were fit using a completive or mixed inhibition model:(3) Competitiveinhibition-v0=Vmax,0PEP/Km,01+I/KI,S+PEP (4) Mixedinhibition-v0=Vmax,0PEP/Km,01+I/KI,S+PEP1+I/KI,I where v0 is the initial velocity of the enzymatic reaction, [PEP] and [I] are the concentration of substrate and inhibitor, respectively, KI,s is the equilibrium dissociation constant for the enzyme-inhibitor complex, KI,I is the dissociation constant for the interaction between the inhibitor and the enzyme-PEP complex, and Km,0 and Vmax,0 are the Michaelis constant and maximum velocity in the absence of inhibitors, respectively. The seven measured datasets (in the absence of inhibitor, and in the presence of two concentrations of each inhibitor) were fit globally.

Setting [4] is: 15N-labeled EIC 400 µM, small molecule 0-8 mM, 37 °C, pH 7.4, read-out: KD.

Molecules are shown by their SMILES. Read-outs that look alike come from different tables or passages of the source.

By Km is commonly meant the concentration of substrate that gives half-maximal velocity. On to `C=C(OP(=O)(O)O)C(=O)O` [PEP, phosphoenolpyruvate], for which the Km in test [1] was 350 µM.
On to `NCc1ccc(-c2ccc(F)cc2)o1` [compound 1], for which the Kd in test [2] (setting [4]) is 2.5 mM. For the same molecule, in test [3], the “Type of inhibition of EI (Lineweaver-Burk analysis)” value was “competitive inhibitors”.
For `CNCc1[nH]c2ccccc2c1C` [compound 2] the same measures were 2.6 mM and “competitive inhibitors”.
Consider `Cc1nn(Cc2ccc(F)cc2)c(C)c1N` [compound 3], for which the Kd in test [2] (setting [4]) stood at 3.2 mM; in test [2] (EIC, residues in the allosteric binding pocket fitted separately, read-out: KD, CSP titration data fitted for the residues in the allosteric binding pocket), 3.2 ± 0.2 mM; in test [2] (EIC, residues in the β3α3 loop fitted separately, read-out: KD, CSP titration data fitted for the residues in the β3α3 loop), 3.5 ± 0.3 mM. For the same molecule, the “Type of inhibition of EI (Lineweaver-Burk analysis)” value in test [3] is recorded as “mixed inhibitor”.
On to `NCc1ccc(Br)s1` [compound 4], for which the Kd in test [2] (setting [4]) is 2.9 mM.
Regarding `CC(C)Oc1ccc(Cl)cc1CN` [compound 5], in test [2] (setting [4]), the Kd came out at 4.3 mM.
Turning to `CC(CN)Nc1ccc([N+](=O)[O-])cc1` (stereo not drawn) [compound 6], the Kd in test [2] (setting [4]) amounted to 4.1 mM.
